In general, EC50 refers to the midpoint of the concentration-response curve. Higher therefore signals lower potency in that assay.

The record followed here is patent publication US9708331B2, “Metabotrophic glutamate receptor 5 modulators and methods of use thereof” (SUNOVION PHARMACEUTICALS INC., priority 2011, dated 2017).

SMILES strings stand for the structures.

In this test the target is mGluR5 (Homo sapiens, UniProt P41594). Description: mGluR5 PAM EC50 (positive allosteric modulator potency). The format is cell-based.
Chain of mGluR5 (P41594 21-1212): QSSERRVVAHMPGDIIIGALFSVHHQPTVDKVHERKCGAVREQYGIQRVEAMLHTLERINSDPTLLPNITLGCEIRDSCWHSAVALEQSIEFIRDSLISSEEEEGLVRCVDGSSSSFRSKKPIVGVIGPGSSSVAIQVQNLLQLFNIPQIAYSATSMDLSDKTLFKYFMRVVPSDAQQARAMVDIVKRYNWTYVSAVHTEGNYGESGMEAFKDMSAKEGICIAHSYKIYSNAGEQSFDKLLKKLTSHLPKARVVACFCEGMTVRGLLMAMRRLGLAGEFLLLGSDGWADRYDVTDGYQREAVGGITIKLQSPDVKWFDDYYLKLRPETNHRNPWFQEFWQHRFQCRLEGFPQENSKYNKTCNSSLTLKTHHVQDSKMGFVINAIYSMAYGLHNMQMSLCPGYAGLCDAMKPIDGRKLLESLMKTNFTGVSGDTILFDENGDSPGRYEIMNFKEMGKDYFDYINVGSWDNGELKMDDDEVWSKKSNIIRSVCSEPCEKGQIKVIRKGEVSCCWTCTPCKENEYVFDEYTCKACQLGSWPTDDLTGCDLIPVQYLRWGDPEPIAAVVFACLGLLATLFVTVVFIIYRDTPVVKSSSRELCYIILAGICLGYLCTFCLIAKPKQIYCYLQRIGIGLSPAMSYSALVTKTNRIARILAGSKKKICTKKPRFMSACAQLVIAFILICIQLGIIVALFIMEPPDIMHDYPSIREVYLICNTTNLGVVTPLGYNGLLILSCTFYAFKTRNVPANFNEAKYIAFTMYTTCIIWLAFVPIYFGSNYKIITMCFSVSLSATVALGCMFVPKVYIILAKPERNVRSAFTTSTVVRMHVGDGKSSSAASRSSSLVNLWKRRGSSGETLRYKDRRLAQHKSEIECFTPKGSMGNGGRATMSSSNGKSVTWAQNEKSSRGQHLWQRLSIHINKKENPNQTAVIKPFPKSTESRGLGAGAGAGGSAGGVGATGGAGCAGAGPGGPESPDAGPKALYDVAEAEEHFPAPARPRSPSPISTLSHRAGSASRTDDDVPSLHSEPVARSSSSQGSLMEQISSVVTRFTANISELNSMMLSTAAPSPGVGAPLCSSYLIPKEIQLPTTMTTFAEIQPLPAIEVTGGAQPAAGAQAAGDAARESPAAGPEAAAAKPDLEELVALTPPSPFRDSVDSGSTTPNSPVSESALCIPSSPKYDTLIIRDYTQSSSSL
In the case of `COCC1Cc2nc3cc(C#Cc4ccccn4)ccc3c(=O)n2C1` (single isomer, unassigned) [Example 1.1b], the EC50 was 100 to 300 nM.
With `CC(C)(O)C1Cc2nc3cc(C#Cc4ccccn4)ccc3c(=O)n2C1` (single isomer, unassigned) [Example 1.2a], the EC50 fell in the range of 10 to 30 nM.
For `CC(C)(O)C1Cc2nc3cc(C#Cc4ccccn4)ccc3c(=O)n2C1` (single isomer, unassigned) [Example 1.2b] the value was 300 to 1000 nM; for `CC(C)(F)C1Cc2nc3cc(C#Cc4ccccn4)ccc3c(=O)n2C1` (single isomer, unassigned) [Example 1.3a], below 10 nM.
The compound `CC(C)(F)C1Cc2nc3cc(C#Cc4ccccn4)ccc3c(=O)n2C1` (single isomer, unassigned) [Example 1.3b] had an EC50 of 100 to 300 nM.
In the case of `O=c1c2ccc(C#Cc3ccccn3)cc2nc2n1CC(CF)C2` (single isomer, unassigned) [Example 1.9a] it was 30 to 100 nM.
For `O=c1c2ccc(C#Cc3ccccn3)cc2nc2n1CC(CF)C2` (single isomer, unassigned) [Example 1.9b] the value was 300 to 1000 nM; for `CC1(C)Cn2c(nc3cc(C#Cc4ccccn4)ccc3c2=O)C1F` (single isomer, unassigned) [Example 1.11a], below 10 nM; for `CC1(C)Cn2c(nc3cc(C#Cc4ccccn4)ccc3c2=O)C1F` (single isomer, unassigned) [Example 1.11b], 10 to 30 nM.
The compound `CC1CCn2c(nc3cc(C#Cc4ccccn4)ccc3c2=O)C1` (single isomer, unassigned) [Example 2.1a] displayed an EC50 of 10 to 30 nM.
In turn, `CC1CCc2nc3cc(C#Cc4ccccn4)ccc3c(=O)n2C1` (single isomer, unassigned) [Example 2.2b] yielded an EC50 of 10 to 30 nM.
`CC1CCCc2nc3cc(C#Cc4ccccn4)ccc3c(=O)n21` (single isomer, unassigned) [Example 2.3b] gave an EC50 below 10 nM.
In turn, `CC1Cn2c(nc3cc(C#Cc4ccccn4)ccc3c2=O)CO1` (single isomer, unassigned) [Example 2.4b] showed an EC50 below 10 nM.
Take `CC1Cn2c(nc3cc(C#Cc4ccccn4)ccc3c2=O)CN1C` (single isomer, unassigned) [Example 2.5a]: the EC50 lay within 30 to 100 nM.
`CCC1CCCc2nc3cc(C#Cc4ccccn4)ccc3c(=O)n21` (single isomer, unassigned) [Example 2.7a] gave an EC50 of 30 to 100 nM.
As to `CCC1CCCc2nc3cc(C#Cc4ccccn4)ccc3c(=O)n21` (single isomer, unassigned) [Example 2.7b], the EC50 was below 10 nM.
Take `CC1(F)CCc2nc3cc(C#Cc4ccccn4)ccc3c(=O)n2C1` (single isomer, unassigned) [Example 2.13a]: the EC50 was in the range of 10 to 30 nM.
`O=c1c2ccc(C#Cc3ccccn3)cc2nc2n1CC(C(F)(F)F)CC2` (single isomer, unassigned) [Example 2.14b] gave an EC50 below 10 nM.
`CC1(C)CC(F)c2nc3cc(C#Cc4ccccn4)cnc3c(=O)n2C1` (single isomer, unassigned) [Example 2.15a] gave an EC50 of 30 to 100 nM.
`CC1CCc2nc3cc(C#Cc4ccccn4)cnc3c(=O)n2C1` (single isomer, unassigned) [Example 2.16b]: the EC50 lay within 100 to 300 nM.
In the case of `CC1CCn2c(nc3cc(C#Cc4ccccn4)cnc3c2=O)C1` (single isomer, unassigned) [Example 2.17b], the EC50 was 300 to 1000 nM.
As for `CCC1CCc2nc3cc(C#Cc4ccccn4)cnc3c(=O)n2C1` (single isomer, unassigned) [Example 2.22b], the EC50 is 100 to 300 nM.
In the case of `CCC1CCn2c(nc3cc(C#Cc4ccccn4)cnc3c2=O)C1` (single isomer, unassigned) [Example 2.22c] it was 10 to 30 nM; in that of `O=c1c2ccc(C#Cc3ccccn3)cc2nc2n1CCC(F)CC2` (single isomer, unassigned) [Example 3.1a], 30 to 100 nM; in that of `O=c1c2ccc(C#Cc3ccccn3)cc2nc2n1CCC(O)CC2` (single isomer, unassigned) [Example 3.2a], 300 to 1000 nM.
For `O=c1c2ccc(C#Cc3ccccn3)cc2nc2n1CCC(O)CC2` (single isomer, unassigned) [Example 3.2b] the value was 30 to 100 nM; for `O=c1c2ccc(C#Cc3ccccn3)cc2nc2n1CC1COCC1CC2` (single isomer, unassigned) [Example 3.2d], 30 to 100 nM; for `O=c1c2ccc(C#Cc3ccccn3)cc2nc2n1CCC1COCC1C2` (single isomer, unassigned) [Example 3.2e], 30 to 100 nM.
Take `O=c1c2ccc(C#Cc3ccccn3)cc2nc2n1CCC1COCC1C2` (single isomer, unassigned) [Example 3.2f]: the EC50 was below 10 nM.
In the case of `O=c1c2ccc(C#Cc3ccccn3)cc2nc2n1CCC1(CCCO1)CC2` (single isomer, unassigned) [Example 3.3a], the EC50 was in the range of 30 to 100 nM.
Regarding `O=c1c2ccc(C#Cc3ccccn3)cc2nc2n1CCC1(CCCO1)CC2` (single isomer, unassigned) [Example 3.3b], the EC50 fell in the range of 100 to 300 nM.
For `O=c1c2ncc(C#Cc3ccccn3)cc2nc2n1CCC(C(F)(F)F)CC2` (single isomer, unassigned) [Example 3.9a] the value was 30 to 100 nM.
In turn, `CC1(F)CCc2nc3cc(C#Cc4ccccn4)cnc3c(=O)n2CC1` (single isomer, unassigned) [Example 3.10a] gave an EC50 of 100 to 300 nM.
In turn, `CC1CCc2nc3c(F)c(C#Cc4ccccn4)ccc3c(=O)n2CC1` (single isomer, unassigned) [Example 3.12a] returned an EC50 below 10 nM.
With `CC1CCc2nc3c(F)c(C#Cc4ccccn4)ccc3c(=O)n2CC1` (single isomer, unassigned) [Example 3.12b], the EC50 lay within 10 to 30 nM.
For `CCC1CCc2nc3cc(C#Cc4ccccn4)ccc3c(=O)n2CC1` (single isomer, unassigned) [Example 3.13a] the value was below 10 nM; for `CCC1CCc2nc3cc(C#Cc4ccccn4)ccc3c(=O)n2CC1` (single isomer, unassigned) [Example 3.13b], 10 to 30 nM; for `CCC1CCc2nc3cc(C#Cc4ccccn4)cnc3c(=O)n2CC1` (single isomer, unassigned) [Example 3.14a], 30 to 100 nM.
In the case of `CC1(F)CCCc2nc3cc(C#Cc4ccccn4)ccc3c(=O)n2C1` (single isomer, unassigned) [Example 3.24a], the EC50 was below 10 nM.
The compound `CC1Cc2nc3cc(C#Cc4ccccn4)cnc3c(=O)n2CCC1(F)F` (single isomer, unassigned) [Example 3.31c] yielded an EC50 of 30 to 100 nM.
`CC1Cn2c(nc3cc(C#Cc4ccccn4)cnc3c2=O)CCC1(F)F` (single isomer, unassigned) [Example 3.31e]: the EC50 is 30 to 100 nM.
For `O=c1c2ccc(C#Cc3ccccn3)cc2nc2n1C[C@H]1CCCN21` (stereo in doubt) [Example 1.22] the value was 30 to 100 nM; for `COCCC1Cc2nc3cc(C#Cc4ccccn4)ccc3c(=O)n2C1` (stereo not drawn) [Example 1.5, 2-(2-methoxyethyl)-6-(pyridin-2-ylethynyl)-2,3-dihydropyrrolo[2,1-b]quinazolin-9(1H)-one], 100 to 300 nM; for `O=c1c2ccc(C#Cc3ccccn3)cc2nc2n1CC1(COC1)C2` [Example 1.6, 6′-(pyridin-2-ylethynyl)-1′H-spiro[oxetane-3,2′-pyrrolo[2,1-b]quinazolin]-9′(3′H)-one], 30 to 100 nM.
With `CC1(C)Cc2nc3c(F)c(C#Cc4ccccn4)ccc3c(=O)n2C1` [Example 1.16, 5-fluoro-2,2-dimethyl-6-(pyridin-2-ylethynyl)-2,3-dihydropyrrolo[2,1-b]quinazolin-9(1H)-one], the EC50 is below 10 nM.
Turning to `O=c1c2ncc(C#Cc3ccccn3)cc2nc2n1CC(C(F)(F)F)C2` (stereo not drawn) [Example 1.17, 3-(pyridin-2-ylethynyl)-7-(trifluoromethyl)-7,8-dihydropyrido[3,2-d]pyrrolo[1,2-a]pyrimidin-10(6H)-one], the EC50 was in the range of 100 to 300 nM.
Regarding `COCCC1Cc2nc3cc(C#Cc4ccccn4)cnc3c(=O)n2C1` (stereo not drawn) [Example 1.18, 7-(2-methoxyethyl)-3-(pyridin-2-ylethynyl)-7,8-dihydropyrido[3,2-d]pyrrolo[1,2-a]pyrimidin-10(6H)-one], the EC50 is 300 to 1000 nM.
As for `CC1(C)Cn2c(nc3cc(C#Cc4ccccn4)cnc3c2=O)C1F` (stereo not drawn) [Example 1.20, 6-fluoro-7,7-dimethyl-3-(pyridin-2-ylethynyl)-7,8-dihydropyrido[3,2-d]pyrrolo[1,2-a]pyrimidin-10(6H)-one], the concentration for a half-maximal effect (EC50) lay within 100 to 300 nM.
For `O=c1c2ccc(C#Cc3ccccn3)cc2nc2n1CC1CCCCN21` (stereo not drawn) [Example 1.23, 3-(pyridin-2-ylethynyl)-9,10,10a,11-tetrahydro-7H-pyrido[1′,2′:3,4]imidazo[2,1-b]quinazolin-13(8H)-one], the EC50 was in the range of 30 to 100 nM.
`C=CC1(O)CCc2nc3cc(C#Cc4ccccn4)ccc3c(=O)n2C1` (stereo not drawn) [Example 2.18, 8-hydroxy-3-(pyridin-2-ylethynyl)-8-vinyl-8,9-dihydro-6H-pyrido[2,1-b]quinazolin-11(7H)-one] yielded an EC50 of 300 to 1000 nM.
On to `O=c1c2ncc(C#Cc3ccccn3)cc2nc2n1CCC(C(F)(F)F)C2` (stereo not drawn) [Example 2.21, 3-(pyridin-2-ylethynyl)-7-(trifluoromethyl)-8,9-dihydro-6H-dipyrido[1,2-a:3′,2′-d]pyrimidin-11(7H)-one], for which the EC50 lay within 30 to 100 nM.
With `CC1(C)CCn2c(nc3cc(C#Cc4cccc(C#N)n4)ccc3c2=O)C1` [Example 2.24a, 6-((7,7-dimethyl-11-oxo-7,8,9,11-tetrahydro-6H-pyrido[2,1-b]quinazolin-3-yl)ethynyl)picolinonitrile], the EC50 is below 10 nM.
Compound `CC1(C)CCc2nc3cc(C#Cc4cccc(C#N)n4)ccc3c(=O)n2C1` [Example 2.24b, 6-((8,8-dimethyl-11-oxo-7,8,9,11-tetrahydro-6H-pyrido[2,1-b]quinazolin-3-yl)ethynyl)picolinonitrile] yielded an EC50 of 10 to 30 nM.
With `CC1(C)CCn2c(nc3cc(C#Cc4cc(C#N)ccn4)ccc3c2=O)C1` [Example 2.25a, 2-((7,7-dimethyl-11-oxo-7,8,9,11-tetrahydro-6H-pyrido[2,1-b]quinazolin-3-yl)ethynyl)isonicotinonitrile], the EC50 fell in the range of 10 to 30 nM.
